Source: paper PMC8198181, “Evaluation of Substituted N-Phenylpiperazine Analogs as D3 vs. D2 Dopamine Receptor Subtype Selective Ligands” (Molecules, 2021)

Biological target: T1, human 5-HT1A receptor (Homo sapiens, UniProt P08908)
T1 construct: expressed in transfected cells; host or cells: CHO-K1
T1 sequence (P08908 1-422): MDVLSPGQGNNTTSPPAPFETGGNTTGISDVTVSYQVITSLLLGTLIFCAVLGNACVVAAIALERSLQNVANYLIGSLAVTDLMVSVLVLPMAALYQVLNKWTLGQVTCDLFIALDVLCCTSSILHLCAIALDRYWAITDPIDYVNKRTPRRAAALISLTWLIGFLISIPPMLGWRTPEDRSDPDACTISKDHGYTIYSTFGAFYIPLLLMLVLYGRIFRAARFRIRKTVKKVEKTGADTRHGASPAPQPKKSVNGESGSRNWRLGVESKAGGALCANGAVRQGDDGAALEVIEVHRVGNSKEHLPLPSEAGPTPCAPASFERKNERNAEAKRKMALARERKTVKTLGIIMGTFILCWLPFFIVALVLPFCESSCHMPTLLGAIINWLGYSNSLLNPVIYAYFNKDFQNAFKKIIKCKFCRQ
Experiment: 5-HT1A receptor binding ([3H]8-hydroxy-DPAT displacement, CHO-K1 membranes)
Method: Because the 5-HT1A receptor is a commonly observed off-site binding site for benzamide N-phenylpiperazine ligands, compounds were simultaneously screened for binding of our compounds at the human 5-HT1A receptor expressed in CHO-K1 cells, using the radioligand [^3H]-8-hydroxy-DPAT (8-OH-DPAT) (Table 2). Based upon the analysis of the displacement assay shown in Table 2, the orthosteric compounds 3c–f appeared to bind with low affinity at human 5-HT1A receptors.
10 μg of membranes from CHO-K1 cells expressing the human 5-HT1A receptor were suspended in 50 mM Tris-HCl, 10 mM MgSO4, 0.5 mM EDTA, and 0.1% (w/v) ascorbic acid, pH 7.4 and test ligands (91 nM for single point radioligand displacement assay and 1 nM to 1 μM for full competition assay) were incubated with 0.25 nM [^3H]8-hydroxy-DPAT (PerkinElmer, Boston, MA, USA) for 60 min at room temperature. The nonspecific binding was determined using 10 μM metergoline (Sigma, St. Louis, MO, USA). After incubation, the bound ligands were filtered using an M-24 Brandel filtration system (Brandel, Gaithersburg, MD, USA), collected on glass fiber papers (Whatman grade 934-AH, GE Healthcare Bio-Sciences, Pittsburgh, PA, USA), and the radioactivity was quantitated using a MicroBeta2 Microplate scintillation counter 2450 (PerkinElmer, Boston, MA, USA).

5-HT1A affinity lower than D3 affinity (5-HT1A Ki vs. D3 Ki): approximately 140 fold
Ki (full competition curve, [3H]-8-hydroxy-DPAT, at least three experiments, read-out: Ki at 5-HT1A receptor): 199 nM
5-HT1A receptor affinity/displacement in words (radioligand displacement assessment at 91 nM): decreased binding affinity
inhibition at 0.091 µM (single point displacement of [3H]-8-hydroxy-DPAT, 91 nM test compound, CHO-K1, ± S.E.M., n ≥ 3): -3.3 ± 15.1%
SMILES: O=C(NCCCCN1CCN(c2ccccc2F)CC1)c1ccc(-c2ccsc2)cc1 [Compound 6a]
